From ChEMBL document CHEMBL1158056, “Antidepressant principles of the roots of Polygala tenuifolia” (J Nat Prod, 2006)

Target: Sodium-dependent noradrenaline transporter (Homo sapiens, UniProt P23975)
Test: biochemical
Description: Displacement of [125I]RTI-55 from human NET expressed in MDCK cell membrane

Chain of Sodium-dependent noradrenaline transporter (P23975 whole entry): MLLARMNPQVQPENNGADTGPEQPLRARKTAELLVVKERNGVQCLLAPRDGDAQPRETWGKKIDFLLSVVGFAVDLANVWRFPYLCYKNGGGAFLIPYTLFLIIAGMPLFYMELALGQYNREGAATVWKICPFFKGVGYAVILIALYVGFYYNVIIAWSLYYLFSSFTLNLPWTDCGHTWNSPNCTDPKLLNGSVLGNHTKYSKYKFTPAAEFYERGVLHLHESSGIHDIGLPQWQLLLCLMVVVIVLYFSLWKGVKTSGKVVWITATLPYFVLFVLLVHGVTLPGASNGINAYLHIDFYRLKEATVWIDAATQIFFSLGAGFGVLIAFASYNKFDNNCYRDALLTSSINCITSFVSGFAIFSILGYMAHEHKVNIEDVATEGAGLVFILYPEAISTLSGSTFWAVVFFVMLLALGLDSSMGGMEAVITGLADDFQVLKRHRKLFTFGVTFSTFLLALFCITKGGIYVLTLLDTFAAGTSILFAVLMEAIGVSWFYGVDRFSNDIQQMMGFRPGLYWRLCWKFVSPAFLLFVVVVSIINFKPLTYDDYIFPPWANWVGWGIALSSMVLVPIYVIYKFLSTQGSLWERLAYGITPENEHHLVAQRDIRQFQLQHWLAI

OC[C@@H]1OC[C@@H](O[C@@H]2O[C@@H](COCc3ccccc3)[C@@H](O)[C@@H](O)[C@@H]2O)[C@H](O)[C@H]1O [POLYGALATENOSIDE A]
IC50: 30 µM

OC[C@@H]1OC[C@@H](O[C@@H]2O[C@@H](CO)[C@@H](O)[C@@H](OCc3ccccc3)[C@@H]2O)[C@H](O)[C@H]1O [POLYGALATENOSIDE B]
IC50: 6.04 µM
